Literature values, collected in patent US8252791B2, “Purine compounds as cannabinoid receptor blockers” (Jenrin Discovery, Inc., priority 2008, dated 2012).

Conditions: patients with type 2 diabetes not treated with other anti-diabetic medications; after six months of treatment; baseline value 7.9; placebo group 0.3%

SMILES: Cc1c(C(=O)NN2CCCCC2)nn(-c2ccc(Cl)cc2Cl)c1-c1ccc(Cl)cc1 [rimonabant]
- HbA1c levels lowered: 0.8%
